In brackets after ≈: the same amount, converted by molar mass. Structures can show the parent of a compound that is named as a salt. Where two headings read alike, the source gives them in different places.
How the values were obtained:
[1] = Dynamic vapor sorption/desorption (DVS); format: physicochemical; conditions: radezolid salts
Description: Dynamic vapor sorption/desorption (DVS) data were collected on a VTI SGA-100 Vapor Sorption Analyzer. Sorption and desorption data were collected over a range of 5% to 95% relative humidity (RH) at 10% RH intervals under a nitrogen purge. Samples were not dried prior to analysis. Equilibrium criteria used for analysis were less than 0.0100% weight change in 5 minutes, with a maximum equilibration time of 3 hours if the weight criterion was not met. Data were not corrected for the initial moisture content of the samples. Sodium chloride and polyvinylpyrrolidine (PVP) were used as calibration standards.

[2] = format: physicochemical; conditions: radezolid salt forms in HPLC grade water, ambient temperature
[3] = Approximate solubility in solvents by aliquot addition; format: physicochemical; conditions: organic solvent or mixture, thermodynamic from solid
Description: Solubilities of the radezolid free base and radezolid HCl salt in various solvents were estimated and are shown in Tables 10 and 11, respectively, below. A weighed sample was treated with aliquots of test solvent at ambient temperature. Complete dissolution of the test material was determined by visual inspection. Solubility was estimated based on the total solvent used to provide complete dissolution. The actual solubility may be greater than the approximate solubility calculated because of the use of solvent aliquots that were too large or due to a slow rate of dissolution. […] If complete dissolution was achieved as a result of only one aliquot addition, the solubility is expressed as “greater than.” The approximate solubilities were rounded to the nearest whole number.

[4] = Solubility of salts in water by HPLC; format: physicochemical; conditions: listed as HCl Salt
Description: In another set of experiments, solubility of various radezolid salts was determined by HPLC. Approximately 1 mL of saturated solution (with excess of solid in solution) of each salt was prepared in water. The mixture was further mixed overnight on a slurry wheel then centrifuged on a desktop centrifuge at maximum speed for ˜5 min. The supernatant was collected, and pH was measured. Solubility was determined at the native pH. Then the pH was adjusted to ˜3.5 with sodium hydroxide solution or an acid solution in which salt was generated. The supernatant was filtered through a 0.2 μm nylon syringe filter and diluted into 0.1% formic acid solution immediately after filtration for HPLC. All HPLC analyses were performed using an Agilent 1100 series liquid chromatograph equipped with a diode array detector, degasser, quaternary pump, and an autosampler. […] The column temperature was set to 30° C., and the detector wavelength was 270 nm with a bandwidth of 8 nm and a reference wavelength of 360 nm. The mobile phase A was 0.1% formic acid in water (HPLC grade), mobile phase B was 0.1% formic acid in methanol (HPLC grade). […] The injection volume was 5 μl.

Enterococcus faecalis = assay: MIC against ribosome-based resistance phenotypes; format: cell-based; conditions: read-out: Minimum Inhibitory Concentration (MIC)
Description: (§1) Furthermore, the antibiotic compounds can be assayed for anti-proliferative or anti-infective properties on a cellular level. For example, where the target organism is a microorganism, the activity of compounds of interest can be assayed by growing the microorganisms of interest in media either containing or lacking the compound. Growth inhibition can be indicative that the molecule could be acting as a protein synthesis inhibitor. […] For this purpose, a panel of bacterial strains can be assembled to include a variety of target pathogenic species, some containing resistance mechanisms that have been characterized. Use of such a panel of organisms permits the determination of structure-activity relationships not only in regards to potency and spectrum, but also with a view to obviating resistance mechanisms.

Staphylococcus aureus = assay: MIC against ribosome-based resistance phenotypes; format: cell-based; conditions: ATCC29213, Staphylococcus aureus ATCC29213, phenotype QC, read-out: Minimum Inhibitory Concentration (MIC)
Description: as §1

B. fragilis [5] = assay: Broth microdilution MIC; format: cell-based; conditions: Bacteroides fragilis, ATCC25285; B. fragilis ATCC 25285
B. thetaiotaomicron = assay: microbe, parasite or virus in culture; format: cell-based; conditions: for MIC: Bacteroides thetaiotaomicron, ATCC29741, read-out: MIC, broth microdilution
F. magna [6] = assay: Broth microdilution MIC; format: cell-based; conditions: Finegoldia magna, ATCC15794; F. magna ATCC 15794
P. granulosum [7] = assay: Broth microdilution MIC; format: cell-based; conditions: P. granulosum ATCC 25746
G. vaginalis [8] = assay: Broth microdilution MIC; format: cell-based; conditions: Gardnerella vaginalis
S. aureus = assay: Broth microdilution MIC; format: cell-based; conditions: for MIC: Staphylococcus aureus, ATCC29213, S. aureus ATCC 29213
[9] = in vivo
B. fragilis [10] = assay: Agar dilution MIC (CLSI reference method); format: cell-based; conditions: Bacteroides fragilis, ATCC25285; B. fragilis ATCC 25285
F. magna [11] = assay: Agar dilution MIC (CLSI reference method); format: cell-based; conditions: Finegoldia magna, ATCC15794; F. magna ATCC 15794
P. acnes = assay: Agar dilution MIC (CLSI reference method); format: cell-based; conditions: Cutibacterium acnes
P. granulosum [12] = assay: Agar dilution MIC (CLSI reference method); format: cell-based; conditions: P. granulosum ATCC 25746
G. vaginalis [13] = assay: Agar dilution MIC (CLSI reference method); format: cell-based; conditions: Gardnerella vaginalis
[14] = ATCC14018, G. vaginalis ATCC 14018
[15] = ATCC49145, G. vaginalis ATCC 49145

## CC(=O)NC[C@H]1CN(c2ccc(-c3ccc(CNCc4cnn[nH]4)cc3)c(F)c2)C(=O)O1 [Hydrochloride, (5S)—N-[3-(2-Fluoro-4′-{[(1H-[1,2,3]triazol-4-ylmethyl)-amino]-methyl}-biphenyl-4-yl)-2-oxo-oxazolidin-5-ylmethyl]-acetamide chloride]
[1]
  DVS desorption: weight loss from 95 to 5% RH: Desorption: 0.069% weight loss
  DVS sorption: weight gain from 5 to 95% RH: 0.064% weight gain from 5 to
  DVS sorption: weight gain upon equilibration at 5% RH: Sorption: 0.03% weight gain
[2]
  solubility: <30 µg/mL
[3]; 1-butanol, Table 11: 1-Butanol, material never went into solution
  solubility: < 2000 µg/mL
[3]; 2,2,2-trifluoroethanol (TFE), Table 11: 2,2,2-trifluoroethanol (TFE)
  solubility: ≥ 6000 µg/mL
[3]; 2-butanone, Table 11: 2-Butanone, material never went into solution
  solubility: < 2000 µg/mL
[3]; 2-propanol, Table 11: 2-Propanol, material never went into solution
  solubility: < 2000 µg/mL
[3]; HFIPA/THF, Table 11: HFIPA/THF
  solubility: ≥ 74000 µg/mL
[3]; HFIPA/dioxane (9:1), Table 11: HFIPA/Dioxane (9:1)
  solubility: ≥ 52000 µg/mL
[3]; HFIPA/ethanol (5:1), Table 11: HFIPA/Ethanol (5:1)
  solubility: ≥ 80000 µg/mL
[3]; dioxane, Table 11: Dioxane, material never went into solution
  solubility: < 2000 µg/mL
[3]; ethanol, Table 11: Ethanol, material never went into solution
  solubility: < 2000 µg/mL
[3]; hexafluoroisopropanol (HFIPA), Table 11: Hexafluoroisopropanol (HFIPA)
  solubility: ≥ 225000 µg/mL
[3]; methanol, Table 11: Methanol, material never went into solution
  solubility: < 2000 µg/mL
[3]; propionitrile, Table 11: Propionitrile, material never went into solution
  solubility: < 2000 µg/mL
[3]; tert-butanol, Table 11: Tert-butanol, material never went into solution
  solubility: < 5000 µg/mL
[3]; tetrahydrofuran (THF), Table 11: Tetrahydrofuran (THF), material never went into solution
  solubility: < 2000 µg/mL
[4]; radezolid salts in water by HPLC at 23° C., pH adjusted to ~3.5
  Solubility at Adjusted pH: 2.0 mg/mL
[4]; supernatant of saturated salt solution in water
  Native pH: 4.6

## CC[C@H]1OC(=O)[C@H](C)[C@@H](O[C@H]2C[C@@](C)(OC)[C@@H](O)[C@H](C)O2)[C@H](C)[C@@H](O[C@@H]2O[C@H](C)C[C@H](N(C)C)[C@H]2O)[C@](C)(O)C[C@@H](C)CN(C)[C@H](C)[C@@H](O)[C@]1(C)O [Azithromycin, azithromycin]
Enterococcus faecalis; ATCC29212, Enterococcus faecalis ATCC29212, phenotype QC
  MIC: 8 µg/mL (≈ 10.7 µM)
Enterococcus faecalis; ATCC29212, Enterococcus faecalis ATCC29212-P5, Lin-R (G2576U)
  MIC: 8 µg/mL (≈ 10.7 µM)
Enterococcus faecalis
  MIC: 128 µg/mL (≈ 171 µM)
Staphylococcus aureus
  MIC: 1 µg/mL (≈ 1.34 µM)

## Cc1ncc([N+](=O)[O-])n1CCO [MET, metronidazole]
B. fragilis [5]
  MIC: 0.5 µg/mL (≈ 2.92 µM)
B. thetaiotaomicron
  MIC: 4 µg/mL (≈ 23.4 µM)
F. magna [6]
  MIC: 0.125 µg/mL (≈ 0.73 µM)
P. granulosum [7]
  MIC: 1 µg/mL (≈ 5.84 µM)
G. vaginalis [8]; [14]
  MIC: 8 µg/mL (≈ 46.7 µM)
G. vaginalis [8]; [15]
  MIC: 4 µg/mL (≈ 23.4 µM)
S. aureus
  MIC: > 32 µg/mL

## CN(C)[C@@H]1C(O)=C(C(N)=O)C(=O)[C@@]2(O)C(O)=C3C(=O)c4c(O)cccc4[C@@](C)(O)[C@H]3C[C@@H]12 [TET, tetracycline]
B. fragilis [5]
  MIC: 0.25 µg/mL (≈ 0.563 µM)
B. thetaiotaomicron
  MIC: 8 µg/mL (≈ 18 µM)
F. magna [6]
  MIC: 0.25 µg/mL (≈ 0.563 µM)
P. granulosum [7]
  MIC: 0.25 µg/mL (≈ 0.563 µM)
G. vaginalis [8]; [14]
  MIC: 0.5 µg/mL (≈ 1.13 µM)
G. vaginalis [8]; [15]
  MIC: > 32 µg/mL
S. aureus
  MIC: 1 µg/mL (≈ 2.25 µM)

## CC[C@H]1OC(=O)[C@H](C)[C@@H](O[C@H]2C[C@@](C)(OC)[C@@H](O)[C@H](C)O2)[C@H](C)[C@@H](O[C@@H]2O[C@H](C)C[C@H](N(C)C)[C@H]2O)[C@](C)(O)C[C@@H](C)C(=O)[C@H](C)[C@@H](O)[C@]1(C)O [ERY, erythromycin]
B. fragilis [5]
  MIC: 16 µg/mL (≈ 21.8 µM)
B. thetaiotaomicron
  MIC: 16 µg/mL (≈ 21.8 µM)
F. magna [6]
  MIC: 4 µg/mL (≈ 5.45 µM)
P. granulosum [7]
  MIC: 16 µg/mL (≈ 21.8 µM)
G. vaginalis [8]; [14]
  MIC: ≤ 0.06 µg/mL
G. vaginalis [8]; [15]
  MIC: ≤ 0.06 µg/mL
S. aureus
  MIC: 1 µg/mL (≈ 1.36 µM)

## CC(=O)NC[C@H]1CN(c2ccc(-c3ccc(CNCc4cnn[nH]4)cc3)c(F)c2)C(=O)O1.Cl [model compound]
pH 4
  solubility of salt in water: 2600 µg/mL
pH 5.4
  solubility of salt in water: 200 µg/mL
pH 6.5
  solubility of salt in water: 60 µg/mL
pH 6.8
  intrinsic solubility: 10 µg/mL
caco-2
  caco-2 permeability: 0.5 ×10⁻⁶ cm/s
[9]
  positive food effect: 4 ×

## C[C@H]1c2cccc(O)c2C(=O)C2=C(O)[C@]3(O)C(=O)C(C(N)=O)=C(O)[C@@H](N(C)C)[C@@H]3[C@@H](O)[C@@H]21 [DOX, doxycycline]
B. fragilis [5]
  MIC: ≤ 0.06 µg/mL
B. thetaiotaomicron; B. thetaiotaomicron, doxycycline: more potent than radezolid
  MIC difference relative to radezolid MIC: 4 fold
B. thetaiotaomicron
  MIC: 2 µg/mL (≈ 4.5 µM)
F. magna [6]
  MIC: 0.125 µg/mL (≈ 0.281 µM)
P. granulosum [7]
  MIC: 0.25 µg/mL (≈ 0.563 µM)
G. vaginalis [8]; [14]
  MIC: 0.5 µg/mL (≈ 1.13 µM)
G. vaginalis [8]; [15]
  MIC: 32 µg/mL (≈ 72 µM)
S. aureus; S. aureus, doxycycline and clindamycin: MICs lower than radezolid
  MIC difference relative to radezolid MIC: 4 fold
S. aureus
  MIC: 0.5 µg/mL (≈ 1.13 µM)

## CCC[C@@H]1C[C@@H](C(=O)N[C@@H]([C@H]2O[C@H](SC)[C@H](O)[C@@H](O)[C@H]2O)[C@H](C)Cl)N(C)C1 [Clindamycin, clindamycin]
B. fragilis [10]
  MIC: 2 µg/mL (≈ 4.71 µM)
F. magna [11]
  MIC: 1 µg/mL (≈ 2.35 µM)
P. acnes; ATCC11827, P. acnes ATCC 11827
  MIC: ≤ 0.06 µg/mL
P. acnes; ATCC11828, P. acnes ATCC 11828
  MIC: 0.125 µg/mL (≈ 0.294 µM)
P. acnes; ATCC29399, P. acnes ATCC 29399
  MIC: ≤ 0.06 µg/mL
P. granulosum [12]
  MIC: 1 µg/mL (≈ 2.35 µM)
G. vaginalis [13]; [14]
  MIC: 0.25 µg/mL (≈ 0.588 µM)
G. vaginalis [13]; [15]
  MIC: 0.125 µg/mL (≈ 0.294 µM)
B. fragilis [5]
  MIC: 1 µg/mL (≈ 2.35 µM)
F. magna [6]
  MIC: 0.5 µg/mL (≈ 1.18 µM)
P. granulosum [7]
  MIC: 1 µg/mL (≈ 2.35 µM)
G. vaginalis [8]; [14]
  MIC: 0.125 µg/mL (≈ 0.294 µM)
G. vaginalis [8]; [15]
  MIC: ≤ 0.06 µg/mL
S. aureus
  MIC: 0.25 µg/mL (≈ 0.588 µM)

Source: patent US10471046B2, “Method for treating, preventing, or reducing the risk of skin infection” (Melinta Subsidiary Corp., priority 2014, dated 2019)
